Like-named read-outs stand apart in the source and are kept apart here.
Key:
[1] = test system: primarily cultured hepatocytes of rats; assay: Hepatoprotective activity: inhibition of tert-butyl hydroperoxide-induced necrosis (LDH release) in primary hepatocytes; assay type: cell-based, white rats; conditions: 1.2 mM tBH for 50 minutes
Procedure: In order to measure the hepatoprotective activities of the A. japonica sample fractions, the primarily cultured hepatocytes of white rats were isolated, and then the inhibitory abilities of the fractions against necrosis induced by treating the isolated hepatocytes with 1.2 mM of tert-butyl hydroperoxide for 50 minutes were examined (Park E J et al., Planta Med, 71: 508˜513, 2005).
Hepatocytes were isolated from white rats according to the method of Seglen et al. Briefly, white rats were anesthetized and the abdomen was incised. Then, a catheter was inserted into the portal vein and perfused with Ca^2+, Mg^2+-free Hank's balanced salt solution bubbled with a mixed gas of 5% CO2 and 95% O2 at 37° C. so as to remove blood from the liver. Then, the catheter was perfused with 0.05% type IV collagenase and 1 mM CaCl2 solution. The liver tissue was removed from the body, and a hepatocyte suspension was prepared from the liver tissue and centrifuged at 50×g for 2 minutes. The precipitated hepatocytes were collected and washed twice with Ca^2+, Mg^2+-free Hank's balanced salt solution. The washed hepatocytes were added at a concentration of 1×10^6 cells/ml to Williams' Medium E (WME, GibcoBRL, USA) containing 10% (v/v) fetal bovine serum (FBS, GibcoBRL), 10^−8 M insulin, 50 U/ml of penicillin and 50 μg/ml of streptomycin (Sigma) in an incubator coated with type I collagen, and were then cultured under 5% CO2 at 37° C. After 2 hours of the culture, the cells were washed with Hank's balanced salt solution to remove non-adhered cells, and the medium was replaced with fresh medium. Then, the cells were cultured under 5% CO2 at 37° C. for 16 hours and then used in the experiment.
Herein, tBH is metabolized into free radical intermediates, which initiate lipid peroxidation to affect the cell integrity, and release LDH into the medium, thus forming covalent bonds with cellular molecules causing damage to the cells.

[2] = TOSC (total oxyradical scavenging capacity) assay, peroxyl radicals generated from ABAP; assay type: biochemical; conditions: both oxyradicals; for scavenging capacity for peroxyl radicals and peroxynitrite: rank in words
Procedure: In order to measure the antioxidative activities of the A. japonica sample fractions, the radical scavenging capacities of the fractions were measured in the following manner using the total oxyradical scavenging capacity (TOSC) assay. The TOSC assay was performed by a modification of the method proposed by Winston et al. (Free Radic. Biol. Med., 24: 480˜493, 1998) (J. Agric. Food Chem. 56, 10510-10514, 2008).
Peroxyl radicals were generated by the thermal homolysis of 2,2′-azobisamidinopropane (ABAP) at 35° C., and peroxynitrite was generated by the spontaneous decomposition of SIN-1.
Then, a total volume of 1 ml of the reaction solution was placed in a 10-ml vial sealed with a rubber septum. For detection of the produced ethylene gas, a gas chromatograph (GC), equipped with a DB-05 capillary column and a flame ionization detector) (FID), was used, an oven set was 60° C., and the injector and the detector were set at 180° C. As a mobile phase, helium was injected into the column at a rate of 2 ml/min. For quantitative determination of the amount of ethylene gas in the vial, 150 μl of gas was sampled from the vial with a gas-tight syringe using a headspace technique and injected into the injector.
The area under the kinetic curve (AUC) was obtained by integrating the graph determined from the results of the above experiment, and the TOSC value was calculated according to the following equation 1 and shown in Table 1 below:
TOSC=100−(∫SA/∫CA×100) [Equation 1]

[3] = Rattus norvegicus, Hepatocyte, 50 min, means ± SE of three independent experiments in triplicate, read-out: ED50 (the source's name)
[4] = Rattus norvegicus, Hepatocyte, 50 min, read-out: LDH release inhibitory rate (ED50)
[5] = read-out: LDH release inhibitory rate (ED50)

Q: For `COc1cc(C2Oc3cc([C@H]4Oc5cc(O)cc(O)c5C(=O)[C@@H]4O)ccc3OC2CO)ccc1O` (stereo partly shown) [Silibinin, reference compound], which EC50 [1, 3] is on record?
A: 131 ± 6.7 µM

Q: What about the EC50 [1, 4] of the same compound?
A: 131 µM

Q: With `O=C(CCc1ccc(O)c(O)c1)C[C@@H](O)CCc1ccc(O)c(O)c1` [hirsutanonol] as the compound, how does the “scavenging capacity for peroxyl radicals and peroxynitrite” value (“scavenging capacity” for short) [2] read?
A: highest

Q: What about the EC50 [1, 3] of the same compound?
A: 6.28 ± 0.81 µM

Q: What about the EC50 [1, 4] of the same compound?
A: 6.28 µM

Q: Which “scavenging capacity” value [2] does the source give for `O=C(/C=C/CCc1ccc(O)c(O)c1)CCc1ccc(O)c(O)c1` [hirsutenone] here?
A: highest

Q: What about the EC50 [1, 3] of the same compound?
A: 3.08 ± 0.14 µM

Q: And the EC50 [1, 4]?
A: 3.08 µM

Q: Which results are given for alnuside A?
A: scavenging capacity for peroxyl radicals and peroxynitrite [2]: second highest; EC50 [1, 5]: 26.5 µM

Q: Which “scavenging capacity” value [2] does the source give for alnuside B here?
A: second highest

Q: And the EC50 [1, 5]?
A: 25.9 µM

Q: Which “activities against reactive oxygen species” value ([2]; in words) does the source give for “platyphyllonol-5-xylose [Platyphyllone-5-xylose]” here?
A: weak

Q: What about the “effect on the inhibition of LDH release” value ([1]; in words) of the same compound?
A: no effect

Q: With rubranoside C as the compound, how does the “scavenging capacity” value [2] read?
A: second highest

Q: And the EC50 [1, 5]?
A: 12.8 µM

Source: patent publication US20110144039A1, “ANTIOXIDATIVE AND HEPATOPROTECTIVE COMPOSITIONS CONTAINING DIARYHEPTANOIDS FROM ALNUS JAPONICA” (RNL BIO CO., LTD., priority 2009, published 2011)
